These results are taken from US7514068B2, “Biphenyl-pyrazolecarboxamide compounds” (Concert Pharmaceuticals Inc., priority 2005, dated 2009).

Read-outs that look alike come from different tables or passages of the source.

Data set [1] can be described thus: RIO-North American Phase III clinical trial, adverse-event associated discontinuations. Conditions: 20 mg dose. The data set is classed as in vivo, human. The source says: In reports of these clinical trials Compound 1 was described as having a good safety profile with relatively low increases in serious adverse events across the different dose groups tested. However, it is clearly less well tolerated in higher doses, with the more common side effects including depression, anxiety, and irritability, and in some but not all studies, significant amounts of nausea. Even in a highly motivated Phase III clinical trial population, a considerable number of dose-dependent discontinuations occurred.

For data set [2] the following is noted: RIO-North American trial, cited from earlier work.
For data set [3] the following is noted: rat liver microsome assays; cited from earlier work. (In general: Liver microsomes are a subcellular fraction often used to study metabolism.)
The next data set has as its system CB1 vs. CB2 receptor. Conditions: in vitro receptor binding studies; cited from earlier work.
The subject of data set [4] is wide range of other neurological receptors. The conditions noted are these: in vitro receptor binding studies; cited from earlier work.
A further data set has as its system rats. The conditions noted are these: cited from earlier work.
For the next data set, the system named is animal models. Conditions: cited from earlier work.

`Cc1c(C(=O)NN2CCCCC2)nn(-c2ccc(Cl)cc2Cl)c1-c1ccc(Cl)cc1` [Compound 1, N-(piperidin-1-yl)-5-(4-chlorophenyl)-1-(2,4-dichlorophenyl)-4-methyl-1H-pyrazole-3-carboxamide]: the “increase of adverse-event associated discontinuations versus placebo” value in data set [1] is 77%. For the same molecule, the entries for the “first year adverse-event associated discontinuations” value in data set [2] (5 mg dose) and in data set [2] (20 mg dose) were 9.4% and 12.8%, respectively. Besides, the sites of metabolism entry in data set [3] is “hydroxylation only on the pyrazole 3-substituent”.
`CCc1c(C(=O)NN2CCCCC2)nn(-c2ccc(Cl)cc2Cl)c1-c1ccc(Br)cc1` [Compound 1A, 5-(4-bromophenyl)-1-(2,4-dichlorophenyl)-4-ethyl-N-(1-piperidinyl)-1H-pyrazole-3-carboxamide]: the “selectivity for the CB1 vs. CB2 receptor” value with CB1 vs. CB2 receptor is given as “highly selective”. Further, in data set [4], the “affinity for a wide range of other neurological receptors” value is “little affinity”. Further, in the data set with rats, the “in vivo effects of cannabinoid agonists (hypothermia, ring immobility, increased tail flick latency)” value is “reverse”. In the data set on animal models, the “duration of action compared with Compound 1” value is reported as “longer”.
